For one molecule, IC50 results are on record in ChEMBL document CHEMBL1151679, “A new cytotoxic sterol methoxymethyl ether from a deep water marine sponge Scleritoderma sp. cf. paccardi” (J Nat Prod, 1996).

≈ marks a conversion by molar mass, not a printed value.

The subject of the assay is P388. Description: Cytotoxicity against mouse P388 cells. In kind it is functional, cell-based.

As a reminder, the IC50 is the concentration needed to halve the response being measured. High values mean a need for much substance, low ones inhibition by little substance. For `COCO[C@H]1CC[C@@]2(C)[C@@H](CC=C3[C@@H]2CC[C@]2(C)[C@@H]([C@H](C)CC[C@@H](C)C(C)C)CC[C@@H]32)C1`, the concentration for half-maximal inhibition (IC50) is 2.3 µg/mL (≈ 5.17 µM).
